Values of other authors as cited in US8128952B2, “Ligand-mediated controlled drug delivery” (Clemson University Research Foundation, priority 2005, dated 2012).

Target: human growth hormone (hGH) (Homo sapiens, UniProt P01241)
Details: interaction between hGH and Zn-EDTA

Chain of human growth hormone (hGH) (P01241 27-217): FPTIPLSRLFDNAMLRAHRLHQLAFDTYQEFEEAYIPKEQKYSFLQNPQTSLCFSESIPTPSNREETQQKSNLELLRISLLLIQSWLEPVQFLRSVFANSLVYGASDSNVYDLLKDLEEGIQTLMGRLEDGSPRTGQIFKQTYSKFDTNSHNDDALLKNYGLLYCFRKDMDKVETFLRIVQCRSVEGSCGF

In the case of `O=C([O-])CN(CCN(CC(=O)O)CC(=O)O)CC(=O)[O-].[Zn+2]` [Zn-EDTA, Zn-ethylenediamine tetraacetic acid], the Kd is given as 380 µM.
